Reference: patent US20070049564A1 (Wyeth, priority 2005, published 2007)
In brackets after ≈: the same amount, converted by molar mass. Like-named read-outs stand apart in the source and are kept apart here.

Key:
Assay in all cases: MIC, broth microdilution
S. agalactiae GC 4564 = settings: Streptococcus agalactiae
E. coli GC 6465 = settings: Escherichia coli
S. aureus GC 1079 = settings: Staphylococcus aureus
S. pneumoniae* GC 4465 = settings: Streptococcus pneumoniae
S. pneumoniae+ GC 4465 = settings: Streptococcus pneumoniae
E. coli GC 2235 = settings: Escherichia coli
S. typhimurium GC 2172 = settings: Salmonella enterica, TYPHIMURIUM
E. coli GC 2272 = settings: Escherichia coli
c. albicans GC 3066 = test system: c. albicans GC 3066
E. faecalis GC 2267 = settings: Enterococcus faecalis
S. aureus GC 1131 = settings: Staphylococcus aureus
E. coli GC 4560 = settings: Escherichia coli
S. aureus GC 6467 = settings: Staphylococcus aureus
E. faecalis GC 2242 = settings: Enterococcus faecalis
E. coli GC 4559 = settings: Escherichia coli
E. faecalis GC 4555 = settings: Enterococcus faecalis
S. aureus GC 4536 = settings: Staphylococcus aureus
S. epidermidis GC 4935 = settings: Staphylococcus epidermidis
E. coli GC 1073 = settings: Escherichia coli
[1] = read-out: MINIMAL INHIBITORY CONCENTRATION MIC, Human Serum
[2] = read-out: MINIMAL INHIBITORY CONCENTRATION MIC, Mouse Serum
[3] = read-out: MINIMAL INHIBITORY CONCENTRATION MIC, Water

MIC (S. agalactiae GC 4564; GC4564, read-out: MINIMAL INHIBITORY CONCENTRATION MIC, Human Serum): 4 µg/mL (≈ 5.05 µM) | MIC (S. agalactiae GC 4564; GC4564, read-out: MINIMAL INHIBITORY CONCENTRATION MIC, Mouse Serum): 1 µg/mL (≈ 1.26 µM) | MIC (S. agalactiae GC 4564; GC4564, read-out: MINIMAL INHIBITORY CONCENTRATION MIC, Water): 2 µg/mL (≈ 2.53 µM) | MIC (E. coli GC 6465; GC6465, read-out: MINIMAL INHIBITORY CONCENTRATION MIC, Human Serum): 32 µg/mL (≈ 40.4 µM) | MIC (E. coli GC 6465; GC6465, read-out: MINIMAL INHIBITORY CONCENTRATION MIC, Mouse Serum): 4 µg/mL (≈ 5.05 µM) | MIC (E. coli GC 6465; GC6465, read-out: MINIMAL INHIBITORY CONCENTRATION MIC, Water): > 64 µg/mL | MIC (S. aureus GC 1079; GC1079, read-out: MINIMAL INHIBITORY CONCENTRATION MIC, Human Serum): 1 µg/mL (≈ 1.26 µM) | MIC (S. aureus GC 1079; GC1079, read-out: MINIMAL INHIBITORY CONCENTRATION MIC, Mouse Serum): 0.5 µg/mL (≈ 0.631 µM) | MIC (S. aureus GC 1079; GC1079, read-out: MINIMAL INHIBITORY CONCENTRATION MIC, Water): 2 µg/mL (≈ 2.53 µM) | MIC (S. pneumoniae* GC 4465; [1]): 2 µg/mL (≈ 2.53 µM) | MIC (S. pneumoniae* GC 4465; [2]): 0.5 µg/mL (≈ 0.631 µM) | MIC (S. pneumoniae* GC 4465; [3]): 1 µg/mL (≈ 1.26 µM) | MIC (S. pneumoniae+ GC 4465; [1]): 2 µg/mL (≈ 2.53 µM) | MIC (S. pneumoniae+ GC 4465; [2]): 1 µg/mL (≈ 1.26 µM) | MIC (S. pneumoniae+ GC 4465; [3]): 1 µg/mL (≈ 1.26 µM) | MIC (E. coli GC 2235; GC2235, read-out: MINIMAL INHIBITORY CONCENTRATION MIC, Human Serum): 32 µg/mL (≈ 40.4 µM) | MIC (E. coli GC 2235; GC2235, read-out: MINIMAL INHIBITORY CONCENTRATION MIC, Mouse Serum): 1 µg/mL (≈ 1.26 µM) | MIC (E. coli GC 2235; GC2235, read-out: MINIMAL INHIBITORY CONCENTRATION MIC, Water): > 64 µg/mL | MIC (S. typhimurium GC 2172; [1]): 64 µg/mL (≈ 80.8 µM) | MIC (S. typhimurium GC 2172; [2]): 8 µg/mL (≈ 10.1 µM) | MIC (S. typhimurium GC 2172; [3]): > 64 µg/mL | MIC (E. coli GC 2272; GC2272, read-out: MINIMAL INHIBITORY CONCENTRATION MIC, Human Serum): 32 µg/mL (≈ 40.4 µM) | MIC (E. coli GC 2272; GC2272, read-out: MINIMAL INHIBITORY CONCENTRATION MIC, Mouse Serum): 2 µg/mL (≈ 2.53 µM) | MIC (E. coli GC 2272; GC2272, read-out: MINIMAL INHIBITORY CONCENTRATION MIC, Water): > 64 µg/mL | MIC (c. albicans GC 3066; Candida albicans, GC3066, read-out: MINIMAL INHIBITORY CONCENTRATION MIC): > 64 µg/mL | MINIMAL INHIBITORY CONCENTRATION MIC (c. albicans GC 3066; Human Serum): >64 UG/ML | MINIMAL INHIBITORY CONCENTRATION MIC (c. albicans GC 3066; Mouse Serum): >64 UG/ML | MIC (E. faecalis GC 2267; GC2267, read-out: MINIMAL INHIBITORY CONCENTRATION MIC, Human Serum): 4 µg/mL (≈ 5.05 µM) | MIC (E. faecalis GC 2267; GC2267, read-out: MINIMAL INHIBITORY CONCENTRATION MIC, Mouse Serum): 2 µg/mL (≈ 2.53 µM) | MIC (E. faecalis GC 2267; GC2267, read-out: MINIMAL INHIBITORY CONCENTRATION MIC, Water): 16 µg/mL (≈ 20.2 µM) | MIC (S. aureus GC 1131; GC1131, read-out: MINIMAL INHIBITORY CONCENTRATION MIC, Human Serum): 0.5 µg/mL (≈ 0.631 µM) | MIC (S. aureus GC 1131; GC1131, read-out: MINIMAL INHIBITORY CONCENTRATION MIC, Mouse Serum): 0.5 µg/mL (≈ 0.631 µM) | MIC (S. aureus GC 1131; GC1131, read-out: MINIMAL INHIBITORY CONCENTRATION MIC, Water): 1 µg/mL (≈ 1.26 µM) | MIC (E. coli GC 4560; GC4560, read-out: MINIMAL INHIBITORY CONCENTRATION MIC, Human Serum): 8 µg/mL (≈ 10.1 µM) | MIC (E. coli GC 4560; GC4560, read-out: MINIMAL INHIBITORY CONCENTRATION MIC, Mouse Serum): 1 µg/mL (≈ 1.26 µM) | MIC (E. coli GC 4560; GC4560, read-out: MINIMAL INHIBITORY CONCENTRATION MIC, Water): 32 µg/mL (≈ 40.4 µM) | MIC (S. aureus GC 6467; GC6467, read-out: MINIMAL INHIBITORY CONCENTRATION MIC, Human Serum): 1 µg/mL (≈ 1.26 µM) | MIC (S. aureus GC 6467; GC6467, read-out: MINIMAL INHIBITORY CONCENTRATION MIC, Mouse Serum): 0.5 µg/mL (≈ 0.631 µM) | MIC (S. aureus GC 6467; GC6467, read-out: MINIMAL INHIBITORY CONCENTRATION MIC, Water): 2 µg/mL (≈ 2.53 µM) | MIC (E. faecalis GC 2242; GC2242, read-out: MINIMAL INHIBITORY CONCENTRATION MIC, Human Serum): 4 µg/mL (≈ 5.05 µM) | MIC (E. faecalis GC 2242; GC2242, read-out: MINIMAL INHIBITORY CONCENTRATION MIC, Mouse Serum): 2 µg/mL (≈ 2.53 µM) | MIC (E. faecalis GC 2242; GC2242, read-out: MINIMAL INHIBITORY CONCENTRATION MIC, Water): 8 µg/mL (≈ 10.1 µM) | MIC (E. coli GC 4559; GC4559, read-out: MINIMAL INHIBITORY CONCENTRATION MIC, Human Serum): 32 µg/mL (≈ 40.4 µM) | MIC (E. coli GC 4559; GC4559, read-out: MINIMAL INHIBITORY CONCENTRATION MIC, Mouse Serum): 2 µg/mL (≈ 2.53 µM) | MIC (E. coli GC 4559; GC4559, read-out: MINIMAL INHIBITORY CONCENTRATION MIC, Water): > 64 µg/mL | MIC (E. faecalis GC 4555; GC4555, read-out: MINIMAL INHIBITORY CONCENTRATION MIC, Human Serum): 8 µg/mL (≈ 10.1 µM) | MIC (E. faecalis GC 4555; GC4555, read-out: MINIMAL INHIBITORY CONCENTRATION MIC, Mouse Serum): 1 µg/mL (≈ 1.26 µM) | MIC (E. faecalis GC 4555; GC4555, read-out: MINIMAL INHIBITORY CONCENTRATION MIC, Water): 16 µg/mL (≈ 20.2 µM) | MIC (S. aureus GC 4536; GC4536, read-out: MINIMAL INHIBITORY CONCENTRATION MIC, Human Serum): 0.5 µg/mL (≈ 0.631 µM) | MIC (S. aureus GC 4536; GC4536, read-out: MINIMAL INHIBITORY CONCENTRATION MIC, Mouse Serum): 0.5 µg/mL (≈ 0.631 µM) | MIC (S. aureus GC 4536; GC4536, read-out: MINIMAL INHIBITORY CONCENTRATION MIC, Water): 1 µg/mL (≈ 1.26 µM) | MIC (S. epidermidis GC 4935; GC4935, read-out: MINIMAL INHIBITORY CONCENTRATION MIC, Human Serum): 2 µg/mL (≈ 2.53 µM) | MIC (S. epidermidis GC 4935; GC4935, read-out: MINIMAL INHIBITORY CONCENTRATION MIC, Mouse Serum): 2 µg/mL (≈ 2.53 µM) | MIC (S. epidermidis GC 4935; GC4935, read-out: MINIMAL INHIBITORY CONCENTRATION MIC, Water): 4 µg/mL (≈ 5.05 µM) | MIC (E. coli GC 1073; GC1073, read-out: MINIMAL INHIBITORY CONCENTRATION MIC, Human Serum): 64 µg/mL (≈ 80.8 µM) | MIC (E. coli GC 1073; GC1073, read-out: MINIMAL INHIBITORY CONCENTRATION MIC, Mouse Serum): 2 µg/mL (≈ 2.53 µM) | MIC (E. coli GC 1073; GC1073, read-out: MINIMAL INHIBITORY CONCENTRATION MIC, Water): > 64 µg/mL
SMILES: Cc1cc(C)cc(C(=O)OCOC(=O)N(CC(=O)Nc2cc(N(C)C)c3c(c2O)C(=O)C2=C(O)[C@]4(O)C(=O)C(C(N)=O)=C(O)[C@@H](N(C)C)[C@@H]4C[C@@H]2C3)C(C)(C)C)c1 [Example 51]
